Source: patent US10870638B2, “Pyridazinone compound or its salt, and herbicide containing it” (ISHIHARA SANGYO KAISHA, LTD., priority 2016, dated 2020)

Legend:
Experiment in all cases: Test Example 1: foliar treatment, growth inhibition rate on 14th day
Type in all cases: in vivo
Details in all cases: active ingredient amount 31 g/ha, 14th day after application
[1] = tested on: barnyardgrass (Echinochloa crus-qalli L.)
From the text: (§1) Upland field soil was put into a 1/300,000 hectare pot, and seeds of various plants were sown. When the respective plants reached predetermined leaf stage ((1) barnyardgrass (Echinochloa crus-[…].): 0.5 to 2.9 leaf stage, (2) crabgrass (Digitaria sanquinalis L.): 0.5 to 3.0 leaf stage, (3) green foxtail (Setaria viridis L.): 0.5 to 3.2 leaf stage, (4) wild oat (Avena fatua L.): 0.4 to 1.2 leaf stage, (5) italian ryegrass (Lolium multiflorum Lam.): 0.4 to 2.0 leaf stage, (6) redroot pigweed (Amaranthus retroflexus L.): cotyledon stage to 2.2 leaf stage, (7) rice (Oryza sativa L.): 0.2 to 2.7 leaf stage, (8) corn (Zea mays L.): 1.7 to 3.6 leaf stage, (9) wheat (Triticum aestivum L.): 1.3 to 2.3 leaf stage, (10) soybean (Glycine max Merr.); primary leaf stage), wettable powders or emulsifiable concentrates of the compounds of the present invention prepared in accordance with a conventional preparation method, were weighed so as to achieve the prescribed active ingredient amounts, and diluted with water in an amount corresponding to 1,000 liters per 1 hectare (containing 0.1 vol % of an agricultural spreader (surfactant WK manufactured by MARUWA BIOCHEMICAL Co., Ltd.)), and the spray solutions thus prepared were applied for foliar treatment by a small sprayer. On the 14th day after the application, the state of growth of the respective plants was visually observed, and the herbicidal effect was evaluated by a growth inhibition rate (%) of 0 (equivalent to the non-treated area) to 100 (complete kill).

corn (Zea mays L.) = tested on: corn (Zea mays L.)
From the text: as §1

[2] = tested on: crabgrass (Digitaria sanquinalis L.)
From the text: as §1

[3] = tested on: green foxtail (Setaria viridis L.)
From the text: as §1

[4] = tested on: italian ryegrass (Lolium multiflorum Lam.)
From the text: as §1

[5] = tested on: redroot pigweed (Amaranthus retroflexus L.)
From the text: as §1

rice (Oryza sativa L.) = tested on: rice (Oryza sativa L.)
From the text: as §1

[6] = tested on: soybean (Glycine max Merr.)
From the text: as §1

[7] = tested on: wheat (Triticum aestivum L.)
From the text: as §1

[8] = tested on: wild oat (Avena fatua L.)
From the text: as §1

[9] = visual, 0 = non-treated, 100 = complete kill

Row | SMILES | Growth inhibition rate (%) Barnyardgrass [1] [%] | Growth inhibition rate (%) Corn (corn (Zea mays L.)) [%] | Growth inhibition rate (%) Crabgrass [2] [%] | Growth inhibition rate (%) Green foxtail [3] [%] | Growth inhibition rate (%) Italian ryegrass [4] [%] | Growth inhibition rate (%) Redroot pigweed [5] [%] | Growth inhibition rate (%) Rice (rice (Oryza sativa L.)) [%] | Growth inhibition rate (%) Soybean [6] [%] | Growth inhibition rate (%) Wheat [7] [%] | Growth inhibition rate (%) Wild oat [8] [%] | Growth inhibition rate (%) Barnyardgrass [1, 9] [%] | Growth inhibition rate (%) Corn (corn (Zea mays L.); [9]) [%] | Growth inhibition rate (%) Crabgrass [2, 9] [%] | Growth inhibition rate (%) Green foxtail [3, 9] [%] | Growth inhibition rate (%) Italian ryegrass [4, 9] [%] | Growth inhibition rate (%) Redroot pigweed [5, 9] [%] | Growth inhibition rate (%) Rice (rice (Oryza sativa L.); [9]) [%] | Growth inhibition rate (%) Soybean [6, 9] [%] | Growth inhibition rate (%) Wheat [7, 9] [%] | Growth inhibition rate (%) Wild oat [8, 9] [%]
1 | CC(=O)Oc1c(C)nn(C)c(=O)c1-c1cc(Oc2ccc(C(F)(F)F)cc2Cl)ccc1C [Compound 2-114] | 98 | 75 | 10 | 80 | 80 | 0 | 10 | 0 | 25 | 83 | – | – | – | – | – | – | – | – | – | –
2 | Cc1ccc(Oc2cnc3cc(Cl)ccc3n2)cc1-c1c(OC(C)OC(=O)OC2CCCCC2)c(C)nn(C)c1=O (stereo not shown) [Compound 3-76] | – | – | – | – | – | – | – | – | – | – | 93 | 0 | 30 | 93 | 10 | 0 | 0 | 0 | 0 | 0
3 | Cc1ccc(Oc2cnc3cc(Cl)ccc3n2)cc1-c1c(OC(=O)CC2CCCCC2)c(C)nn(C)c1=O [Compound 3-80] | – | – | – | – | – | – | – | – | – | – | 100 | 25 | 95 | 99 | 93 | 0 | 0 | 25 | 90 | 99
4 | COC(=O)OC(C)Oc1cnn(C)c(=O)c1-c1cc(Oc2nc3ccc(Cl)cc3o2)ccc1C (stereo not shown) [Compound 2-178] | 100 | 83 | 100 | 100 | 98 | 0 | 15 | 0 | 75 | 95 | – | – | – | – | – | – | – | – | – | –
5 | Cc1ccc(Nc2ncc(C(F)(F)F)cc2Cl)cc1-c1c(O)c(C)nn(C)c1=O [1-144] | 30 | 10 | 10 | 60 | 0 | 0 | 20 | 20 | 0 | 10 | – | – | – | – | – | – | – | – | – | –
6 | Cc1ccc(S(=O)(=O)Oc2c(C)nn(C)c(=O)c2-c2cc(Oc3cnc4cc(Cl)ccc4n3)ccc2C)cc1 [Compound 3-71] | – | – | – | – | – | – | – | – | – | – | 100 | 0 | 90 | 100 | 98 | 0 | 15 | 0 | 95 | 99
7 | C=CCOc1c(C)nn(C)c(=O)c1-c1cc(Oc2cnc3cc(Cl)ccc3n2)ccc1C [Compound 3-74] | – | – | – | – | – | – | – | – | – | – | 93 | 20 | 20 | 95 | 0 | 0 | 0 | 0 | 0 | 25
8 | Cc1ccc(Oc2cnc3cc(Cl)ccc3n2)cc1-c1c(OC(=S)Oc2ccccc2)c(C)nn(C)c1=O [Compound 3-62] | – | – | – | – | – | – | – | – | – | – | 100 | 60 | 99 | 99 | 93 | 0 | 0 | 20 | 90 | 99
9 | C#CCOc1c(C)nn(C)c(=O)c1-c1cc(Oc2cnc3cc(Cl)ccc3n2)ccc1C [Compound 3-77] | – | – | – | – | – | – | – | – | – | – | 100 | 30 | 90 | 100 | 85 | 0 | 0 | 0 | 25 | 60
10 | Cc1ccc(Oc2ncc(C#N)cc2Cl)cc1-c1c(O)c(C)nn(C)c1=O [Compound 2-2] | 70 | 10 | 70 | 75 | 10 | 20 | 0 | 0 | 0 | 10 | – | – | – | – | – | – | – | – | – | –
11 | COc1ccc(Oc2ncc(C(F)(F)F)cc2Cl)cc1-c1c(O)c(C)nn(C)c1=O [1-10] | 70 | 60 | 90 | 90 | 0 | 0 | 0 | 20 | 0 | 20 | – | – | – | – | – | – | – | – | – | –
12 | Cc1ccc(Oc2cnc3cc(Cl)ccc3n2)cc1-c1c(OC(=S)Sc2ccccc2)c(C)nn(C)c1=O [Compound 3-63] | – | – | – | – | – | – | – | – | – | – | 100 | 40 | 98 | 100 | 90 | 0 | 0 | 0 | 83 | 98
13 | COCCOCOc1c(C)nn(C)c(=O)c1-c1cc(Oc2ncc(C(F)(F)F)cc2Cl)ccc1C [1-134] | 98 | 93 | 99 | 100 | 98 | 0 | 88 | 0 | 98 | 99 | – | – | – | – | – | – | – | – | – | –
14 | CC(=O)Oc1c(C)nn(C)c(=O)c1-c1cc(Oc2nc3ccc(Cl)cc3s2)ccc1C [Compound 2-132] | 90 | 0 | 50 | 80 | 78 | – | 40 | 30 | 70 | 90 | – | – | – | – | – | – | – | – | – | –
